Laboratory results taken from PubChem BioAssay (NCI).
Where “and” joins values, the source holds several entries; their conditions need not be identical. Equal values may be shown once.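 Compound exposure: 48 hours, 5 concentrations, 96-well plates. GI50 is the concentration that inhibits growth by half. TGI denotes the concentration required for complete inhibition of growth.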

Legend:
Experiment in all cases: growth of human tumour cells (NCI), 48 h
HL-60(TB) leukemia = tested on: HL-60(TB) leukemia
SN12C renal = tested on: SN12C renal
MDA-MB-435 = tested on: MDA-MB-435
LOX IMVI melanoma = tested on: LOX IMVI melanoma
CAKI-1 renal = tested on: CAKI-1 renal
HS 578T breast = tested on: HS 578T breast
HCT-15 colon = tested on: HCT-15 colon
IGROV1 ovarian = tested on: IGROV1 ovarian
OVCAR-4 ovarian = tested on: OVCAR-4 ovarian
UACC-62 melanoma = tested on: UACC-62 melanoma

| SMILES | TGI (HL-60(TB) leukemia) | TGI (SN12C renal) | TGI (MDA-MB-435) | TGI (LOX IMVI melanoma) | TGI (CAKI-1 renal) | TGI (HS 578T breast) | TGI (HCT-15 colon) | TGI (IGROV1 ovarian) | TGI (OVCAR-4 ovarian) | GI50 (HL-60(TB) leukemia) | GI50 (SN12C renal) | GI50 (MDA-MB-435) | GI50 (LOX IMVI melanoma) | GI50 (CAKI-1 renal) | GI50 (HS 578T breast) | GI50 (HCT-15 colon) | GI50 (IGROV1 ovarian) | GI50 (UACC-62 melanoma) | TGI (UACC-62 melanoma) | GI50 (OVCAR-4 ovarian) |
| --- | --- | --- | --- | --- | --- | --- | --- | --- | --- | --- | --- | --- | --- | --- | --- | --- | --- | --- | --- | --- |
| C1CSCCSCCCSCCSCCCSCCSCCCSCCSC1 | > 100 µM | > 100 µM | > 100 µM | > 100 µM | > 100 µM | > 100 µM | > 100 µM | > 100 µM | > 100 µM | – | – | – | – | – | – | – | – | – | – | – |
| CN1CCc2nc3sc(C(N)=O)c(N)c3c(-c3cccs3)c2C1 | 6.97 µM | > 100 µM | > 100 µM | > 100 µM | > 100 µM | 21.7 µM | > 100 µM | > 100 µM | > 100 µM | 2.5 µM | 2.69 µM | 3.13 µM | 1.27 µM | 2.82 µM | 3.07 µM | 3.31 µM | 5.16 µM | 2.38 µM | 6.56 µM | 7.38 µM |
| Fc1ccc(/C=N/n2c(-c3ccc(F)c(Cl)c3)n[nH]c2=S)cc1 | > 100 µM | – | > 100 µM | – | > 100 µM | 97.3 µM | – | 48.8 µM | 39.9 µM | 34.8 µM | – | 57.7 µM | – | 47.8 µM | 28.8 µM | – | 20.6 µM | 22.8 µM | 49 µM | 19.9 µM |
| CCN1C(=O)N(CC)C2C1NN=c1s/c(=C\c3ccc(F)cc3)c(=O)n12 (stereo not drawn) | 0.514 µM | > 100 µM | 0.121 µM | > 100 µM | > 100 µM | > 100 µM | > 100 µM | > 100 µM | > 100 µM | 0.17 µM | 0.615 µM | 0.0317 µM | 0.338 µM | 0.0722 µM | 0.183 µM | 0.0876 µM | 0.584 µM | 0.111 µM | > 100 µM | 0.786 µM |
| c1cc(N2CCN(c3ccc(C4=NCCCN4)cc3)CC2)ccc1C1=NCCCN1 | > 89 µM | > 100 µM | > 20.3 µM | > 77.9 µM | > 100 µM | > 100 µM | > 100 µM | > 100 µM | > 100 µM | – | > 100 µM | – | – | > 100 µM | > 58.7 µM | > 100 µM | > 100 µM | – | > 35.3 µM | 71.8 µM |
| CSc1ccc(C2=NN(C(C)=O)C(c3ccc(-c4ccc(Cl)cc4)o3)C2)cc1 (stereo not drawn) | > 100 µM | 40.6 µM | > 100 µM | > 100 µM | > 100 µM | > 100 µM | > 100 µM | > 100 µM | > 100 µM | 15.3 µM | 21.7 µM | 29.2 µM | 32.8 µM | 31.1 µM | 49.8 µM | 23.2 µM | 6.06 µM | 20.1 µM | > 100 µM | 32.9 µM |
| Nc1n[nH]c2ccc([C@@H]3Nc4cc5c(cc4[C@H]4C6CCC(C6)[C@@H]34)C(=O)NC5)cc12 (stereo partly drawn) | – | > 100 µM | 0.49 µM | > 100 µM | > 100 µM | > 100 µM | > 100 µM | > 100 µM | > 100 µM | 0.282 µM | 0.473 µM | 0.126 µM | 0.291 µM | 0.498 µM | 0.484 µM | 0.601 µM | 0.417 µM | 0.408 µM | > 100 µM | 1.37 µM |
| CCCCNc1nc(NC2OCC(OC(C)=O)C(OC(C)=O)C2OC(C)=O)c(N=O)c(=O)n1C (stereo not drawn) | > 10 µM | > 10 µM | > 10 µM | > 10 µM | > 10 µM | > 10 µM | > 10 µM | > 10 µM | > 10 µM | – | – | – | – | – | – | – | – | – | > 10 µM | – |
| Oc1cccc2c1NCCC2 | 7.84 µM | > 76.2 µM | > 100 µM | > 36.7 µM | 16.6 µM | > 100 µM | > 100 µM | > 100 µM | > 100 µM | 0.194 µM | 0.121 µM | 0.122 µM | 0.119 µM | 2.24 µM | 0.183 µM | 0.19 µM | 0.745 µM | 0.144 µM | 4.51 µM | 1.65 µM |
| Clc1ccc(C2ON=C(c3ccccc3)N2C23CC4CC(CC(C4)C2)C3)cc1 (stereo not drawn) | > 10 µM | > 10 µM | > 10 µM | > 10 µM | > 10 µM | > 10 µM | > 10 µM | > 10 µM | > 10 µM | – | – | – | – | – | – | – | – | – | > 10 µM | – |
| COc1cc(C(=O)c2cc(C)c3[nH]c4ccc(O)cc4c3c2C)cc(OC)c1OC | 0.0797 µM | > 100 µM | 0.018 µM | > 100 µM | > 47.6 µM | > 100 µM | > 100 µM | 20.5 µM | > 100 µM | 0.0246 µM | 0.0415 µM | < 0.01 µM | < 0.0143 µM | < 0.01 µM | 0.0141 µM | 0.0196 µM | 0.0169 µM | < 0.01 µM | > 100 µM | 1.05 µM |
| CCC(=O)Nc1ccc(N2C(=O)/C(=C/c3ccc(OC)cc3)N=C2c2ccccc2)cc1 | > 50 µM | 15.3 µM | > 50 µM | 13.2 µM | 21.7 µM | > 50 µM | > 50 µM | > 50 µM | > 50 µM | 23.7 µM | 5.46 µM | 20.5 µM | 2.51 µM | 6.4 µM | 14.1 µM | 2.77 µM | 14.1 µM | 3.67 µM | 17.7 µM | 16.2 µM |
| COc1ccc(/C=C(/C)[N+](=O)[O-])cc1OC | 5.76 µM and 8.93 µM | 6.07 µM and 5.77 µM | 5.55 µM and 5.29 µM | 3.21 µM and 3.55 µM | 4.04 µM and 1.46 µM | > 100 µM | 5.47 µM and 2.67 µM | 7.75 µM and 5.68 µM | 3.88 µM and 4.77 µM | 2.42 µM and 2.47 µM | 2.35 µM and 2.18 µM | 2.17 µM and 2.1 µM | 1.6 µM and 1.15 µM | 1.88 µM and 0.338 µM | 6.2 µM and 5.55 µM | 2.08 µM and 1.02 µM | 2.79 µM and 2.26 µM | 1.78 µM and 1.72 µM | 3.62 µM and 3.89 µM | 1.91 µM and 2.27 µM |
| CN1CCN(CCCCCN=c2cc3c(=O)n(CCCCCN4CCN(C)CC4)c(=O)c4c(NCCCCCN5CCN(C)CC5)cc5c(O)n(CCCCCN6CCN(C)CC6)c(=O)c2c5c4-3)CC1 | 59 µM | 9.73 µM | 8.73 µM | 12.8 µM | > 100 µM | 6.86 µM | > 100 µM | 29.4 µM | 5.61 µM | 7.16 µM | 2.55 µM | 2.7 µM | 2.94 µM | > 100 µM | 2.64 µM | > 100 µM | 5.7 µM | 4.19 µM | 15.7 µM | 2.22 µM |
